ChEMBL document CHEMBL3102761, “Discovery of Clinical Candidate GSK1842799 As a Selective S1P1 Receptor Agonist (Prodrug) for Multiple Sclerosis” (ACS Med Chem Lett, 2013)
Values after ≈ are worked out from the molar mass of the structure shown. Active and inactive are the calls of the source. The rule behind the calls is not given here.

Key:
[1] = Metabolic stability in cynomolgus monkey liver microsomes; type: ADME, Macaca fascicularis, Microsome
Liver microsome [2] = experiment: Metabolic stability in dog liver microsomes; type: ADME, Canis lupus familiaris
Liver microsome [3] = experiment: Metabolic stability in rat liver microsomes; type: ADME
[4] = Inhibition of CYP450 (unknown origin); type: ADME; conditions: human
[5] = Aqueous solubility of the compound; type: physicochemical; conditions: buffer
Caco-2 = experiment: Permeability across human Caco2 cells; type: ADME, cell-based
Mus musculus [6] = experiment: Reduction in clinical symptoms in MOG peptide experimental autoimmune encephalitis (EAE) mouse multiple sclerosis disease model at 3 mg/kg, po qd; type: functional, organism-based; design: dose 3 mg/kg
Mus musculus [7] = experiment: Induction of lymphopenia in po dosed C57BL/6 mouse measured at 6 hrs post-dose relative to vehicle-treated control; type: functional, organism-based
Mus musculus [8] = experiment: Induction of lymphopenia in C57BL/6 mouse at 0.1 mg/kg, po at 6 hrs post-dose relative to vehicle-treated control; type: functional, organism-based; design: dose 0.1 mg/kg
Homo sapiens [9] = organism: Homo sapiens; experiment: Selectivity ratio for human Sphk1 to human Sphk2
Homo sapiens [10] = organism: Homo sapiens; experiment: Selectivity ratio for S1P3R (unknown origin) to S1P1R (unknown origin)
[11] = target: T1, Sphingosine 1-phosphate receptor 1 (Homo sapiens, UniProt P21453); experiment: Agonist activity at S1P1R (unknown origin) assessed as [33P] binding activity
T1 sequence (P21453 whole entry): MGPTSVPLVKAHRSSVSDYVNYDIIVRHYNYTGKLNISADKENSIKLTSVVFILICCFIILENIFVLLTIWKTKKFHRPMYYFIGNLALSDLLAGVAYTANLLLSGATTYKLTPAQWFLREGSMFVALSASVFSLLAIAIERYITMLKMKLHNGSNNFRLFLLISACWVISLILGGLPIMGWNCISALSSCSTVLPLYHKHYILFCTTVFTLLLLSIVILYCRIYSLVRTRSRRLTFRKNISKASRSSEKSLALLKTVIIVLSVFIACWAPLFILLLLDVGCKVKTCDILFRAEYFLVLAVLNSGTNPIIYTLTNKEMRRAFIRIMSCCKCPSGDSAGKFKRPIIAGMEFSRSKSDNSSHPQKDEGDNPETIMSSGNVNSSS

[12] = target: T2, Sphingosine 1-phosphate receptor 3 (Homo sapiens, UniProt Q99500); experiment: Agonist activity at S1P3R (unknown origin) assessed as [33P] binding activity
Target sequence in this assay (Q99500 whole entry, looked up): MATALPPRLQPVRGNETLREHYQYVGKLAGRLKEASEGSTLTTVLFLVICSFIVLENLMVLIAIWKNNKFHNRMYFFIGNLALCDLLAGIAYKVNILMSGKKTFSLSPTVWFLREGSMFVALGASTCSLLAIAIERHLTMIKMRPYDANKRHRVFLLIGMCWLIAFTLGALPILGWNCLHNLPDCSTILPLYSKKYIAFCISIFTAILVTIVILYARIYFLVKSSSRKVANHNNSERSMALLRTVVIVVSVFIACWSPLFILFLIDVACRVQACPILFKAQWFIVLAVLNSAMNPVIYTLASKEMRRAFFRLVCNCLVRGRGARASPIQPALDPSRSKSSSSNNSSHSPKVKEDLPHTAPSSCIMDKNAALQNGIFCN

Homo sapiens [13] = organism: Homo sapiens; experiment: Selectivity ratio of EC50 for S1P3R (unknown origin) to EC50 for S1P1R (unknown origin)
[14] = target: Sphingosine 1-phosphate receptor 5 (Homo sapiens, UniProt Q9H228); experiment: Agonist activity at human S1P5R expressed in HEK293T cells assessed as [35S]GTPgammaS binding after 30 mins by scintillation counting; type: functional, cell-based, HEK-293T
Sphingosine 1-phosphate receptor 5, sequence (Q9H228 whole entry): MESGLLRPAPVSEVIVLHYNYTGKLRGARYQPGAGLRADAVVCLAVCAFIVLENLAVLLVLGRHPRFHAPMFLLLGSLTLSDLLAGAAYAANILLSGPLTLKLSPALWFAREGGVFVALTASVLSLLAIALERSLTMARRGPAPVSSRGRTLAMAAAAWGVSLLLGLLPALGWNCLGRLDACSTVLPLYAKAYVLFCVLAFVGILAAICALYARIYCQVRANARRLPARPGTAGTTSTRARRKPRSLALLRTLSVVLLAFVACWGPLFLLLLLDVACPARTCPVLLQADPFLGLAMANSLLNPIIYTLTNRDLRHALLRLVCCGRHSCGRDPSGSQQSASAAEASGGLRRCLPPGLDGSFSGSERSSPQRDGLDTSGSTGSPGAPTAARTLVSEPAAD

[15] = target: T3, Sphingosine 1-phosphate receptor 4 (Homo sapiens, UniProt O95977); experiment: Agonist activity at human S1P4R expressed in HEK293T cells assessed as [35S]GTPgammaS binding after 30 mins by scintillation counting; type: functional, cell-based, HEK-293T
T3 sequence (O95977 whole entry): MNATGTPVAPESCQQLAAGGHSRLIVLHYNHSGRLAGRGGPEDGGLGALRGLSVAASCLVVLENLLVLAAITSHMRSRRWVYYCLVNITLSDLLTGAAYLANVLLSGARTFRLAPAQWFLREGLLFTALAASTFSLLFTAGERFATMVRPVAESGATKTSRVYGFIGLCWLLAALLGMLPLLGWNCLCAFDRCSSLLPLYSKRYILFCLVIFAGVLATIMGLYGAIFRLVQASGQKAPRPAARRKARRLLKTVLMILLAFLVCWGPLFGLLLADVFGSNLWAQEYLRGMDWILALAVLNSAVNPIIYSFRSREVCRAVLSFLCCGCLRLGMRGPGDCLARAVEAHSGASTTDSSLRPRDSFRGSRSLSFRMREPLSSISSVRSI

[16] = target: T2, Sphingosine 1-phosphate receptor 3; experiment: Agonist activity at human S1P3R expressed in HEK293T cells assessed as [35S]GTPgammaS binding after 30 mins by scintillation counting; type: functional, cell-based, HEK-293T
Target sequence in this assay (Q99500 whole entry): as the sequence (Q99500 whole entry, looked up) above

[17] = target: T1, Sphingosine 1-phosphate receptor 1; experiment: Agonist activity at human S1P1R expressed in HEK293T cells assessed as [35S]GTPgammaS binding after 30 mins by scintillation counting; type: functional, cell-based, HEK-293T
Mus musculus [18] = experiment: Induction of lymphopenia in C57BL/6 mouse at 10 mg/kg, po at 6 hrs post-dose
Liver microsome [19] = experiment: Metabolic stability in human liver microsomes; type: ADME
Cynomolgus monkey = experiment: Induction of […] in po dosed cynomolgus monkey; type: functional, Macaca fascicularis
[20] = Cmax in cynomolgus monkey at 3.8 mg/kg, po administered as single dose; type: ADME, organism-based, Macaca fascicularis; design: dose 3.8 mg/kg, route oral; conditions: in vivo
Plasma [21] = experiment: Plasma concentration in rat assessed as phosphorylated compound at 3 mg/kg, po administered as single dose; type: ADME, organism-based; design: dose 3 mg/kg, route oral; conditions: in vivo
Plasma [22] = experiment: Plasma concentration in cynomolgus monkey assessed as phosphorylated compound at 3.8 mg/kg, po administered as single dose; type: ADME, organism-based, Macaca fascicularis; design: dose 3.8 mg/kg, route oral; conditions: in vivo
Plasma [23] = experiment: Plasma concentration in dog assessed as phosphorylated compound at 5 mg/kg, po administered as single dose; type: ADME, organism-based, Canis lupus familiaris; design: dose 5 mg/kg, route oral; conditions: in vivo

| Compound | Selectivity ratio (Homo sapiens [10]) | Activity [11] [nM] | Activity [12] [µM] | also measured |
| --- | --- | --- | --- | --- |
| CCCCCCCCOc1ccc(-c2cnc([C@@](C)(N)CO)s2)cc1C(F)(F)F |  |  |  | Stability [1]: Stable; Stability (Liver microsome [2]): Stable; Stability (Liver microsome [3]): Stable; inhibition (INH) [4]: Not Active; solubility [5]: soluble; permeability (Caco-2): permeable; Activity (Mus musculus [6]): Active; Activity (Mus musculus [7]): Dose-dependent effect; Activity (Mus musculus [8]): Active |
| CCCCCCCCc1ccc(CCC(N)(CO)CO)cc1 |  |  |  | Selectivity ratio (Homo sapiens [9]): 30; Activity (Mus musculus [6]): Active |
| Cc1oc([C@@](C)(N)COP(=O)(O)O)nc1-c1ccc(OCc2ccc(-c3ccccc3)cc2)c(C(F)(F)F)c1 | > 5000 | 2.1 | > 10 |  |
| C[C@](N)(COP(=O)(O)O)c1ncc(-c2ccc(OCc3ccc(-c4ccccc4)cc3)c(C(F)(F)F)c2)o1 | > 8000 | 1.1 | > 10 |  |
| CCCCCCCCOc1ccc(-c2cc([C@@](C)(N)COP(=O)(O)O)[nH]n2)cc1C(F)(F)F | > 12000 | 0.83 | > 10 |  |
| CCCCCCCCOc1ccc(-c2noc([C@@](C)(N)COP(=O)(O)O)n2)cc1C(F)(F)F | > 5260 | 1.9 | > 10 |  |
| CCCCCCCCOc1ccc(-c2nnc([C@@](C)(N)COP(=O)(O)O)s2)cc1C(F)(F)F | 3290 | 0.52 | 1.9 | Ratio EC50 (Homo sapiens [13]): > 11500; EC50 [14]: 0.66 nM; EC50 [15]: 4.57 nM; EC50 [16]: > 3000 nM; EC50 [17]: 0.26 nM; Activity (Mus musculus [18]): 119% |
| CCCCCCCCOc1ccc(-c2cnc([C@@](C)(N)COP(=O)(O)O)s2)cc1C(F)(F)F | 1670 | 0.18 | 0.3 | Ratio EC50 (Homo sapiens [13]): > 6800; EC50 [14]: 2 nM; EC50 [15]: 3.6 nM; EC50 [16]: > 3000 nM; EC50 [17]: 0.44 nM; Activity (Mus musculus [18]): 98% |
| CCCCCCCCOc1ccc(-c2cnc([C@@](C)(N)COP(=O)(O)O)[nH]2)cc1C(F)(F)F | 3340 | 1.46 | 4.87 |  |
| CCCCCCCCCCCCC/C=C/[C@@H](O)[C@@H](N)COP(=O)(O)O |  |  |  | EC50 [15]: 13 nM; EC50 [16]: 3.94 nM; EC50 [17]: 4.25 nM |
| CCCCCCCCOc1ccc(-c2nnc([C@@](C)(N)COP(=O)(O)O)o2)cc1C(F)(F)F | > 359 | 27.8 | > 10 |  |
| CCCCCCCCOc1ccc(-c2cc([C@@](C)(N)COP(=O)(O)O)on2)cc1C(F)(F)F | 1210 | 0.14 | 0.17 |  |
| C[C@](N)(COP(=O)(O)O)c1nnc(-c2ccc(OCc3ccc(-c4ccccc4)cc3)c(C(F)(F)F)c2)s1 | 2540 | 1.77 | 4.5 |  |
| CCCCCCCCOc1ccc(-c2nnc([C@@](C)(N)CO)s2)cc1C(F)(F)F |  |  |  | Stability (Liver microsome [19]): Stable; EC90 (Cynomolgus monkey): 0.0162 µg/mL (≈ 0.0375 µM); Stability [1]: Stable; Stability (Liver microsome [2]): Stable; Stability (Liver microsome [3]): Stable; Cmax [20]: 50.9 ng/mL; Cp (Plasma [21]): 10 ng/mL; Cp (Plasma [22]): 10 ng/mL; Cp (Plasma [23]): 10 ng/mL; inhibition (INH) [4]: Not Active; solubility [5]: soluble; permeability (Caco-2): permeable; Activity (Mus musculus [6]): Active; Activity (Mus musculus [7]): Dose-dependent effect; Activity (Mus musculus [8]): Active |

The next lines start with results.

| Selectivity ratio (Homo sapiens [10]) | Activity [11] [nM] | Activity [12] [µM] | Compound | also measured |
| --- | --- | --- | --- | --- |
| 8860 | 0.83 | 7.35 | C[C@](N)(COP(=O)(O)O)c1nc(-c2ccc(OCc3ccc(-c4ccccc4)cc3)c(C(F)(F)F)c2)c[nH]1 |  |
| 1190 | 0.73 | 0.867 | C[C@](N)(COP(=O)(O)O)c1ncc(-c2ccc(OCc3ccc(-c4ccccc4)cc3)c(C(F)(F)F)c2)s1 |  |
| 11900 | 0.65 | 7.67 | Cc1nc([C@@](C)(N)COP(=O)(O)O)[nH]c1-c1ccc(OCc2ccc(-c3ccccc3)cc2)c(C(F)(F)F)c1 |  |
| > 4350 | 2.3 | > 10 | NC(CO)(COP(=O)(O)O)c1nc(-c2ccc(OCc3ccc(-c4ccccc4)cc3)c(C(F)(F)F)c2)c[nH]1 (centres undefined) |  |
| 2170 | 0.3 | 0.65 | N[C@@H](COP(=O)(O)O)c1nc(-c2ccc(OCc3ccc(-c4ccccc4)cc3)c(C(F)(F)F)c2)c[nH]1 |  |
| > 6250 | 1.6 | > 10 | C[C@](N)(COP(=O)(O)O)c1nc(-c2ccc(OCc3ccc(-c4ccccc4)cc3)c(C(F)(F)F)c2)cs1 |  |
